Test results as given in BindingDB's records for patent US9403804 (Janssen Pharmaceutica, 2016).

Molecular target: Macrophage colony-stimulating factor 1 receptor (Homo sapiens, UniProt P07333)
Assay: Fluorescence Polarization Competition Immunoassay
Details: pH 7.5; 25 °C
Protocol: The assay buffer used was 100 mM 4-(2-hydroxyethyl)piperazine 1-ethanesulfonic acid (HEPES), pH 7.5, 1 mM 1,4-dithio-DL-threitol (DTT), 0.01% (v/v) Tween-20. Compounds were diluted in assay buffer containing 4% dimethylsulfoxide (DMSO) just prior to the assay. To each well, 5 μL of compound were added followed by the addition of 3 μL of a mix containing 33 nM c-fms (Johnson & Johnson PRD) and 16.7 mM MgCl2 (Sigma) in assay buffer. The kinase reaction was initiated by adding 2 μL of 5 mM ATP (Sigma) in assay buffer. The final concentrations in the assay were 10 nM c-fms, 1 mM ATP, 5 mM MgCl2, 2% DMSO. Control reactions were ran in each plate: in positive and negative control wells, assay buffer (made 4% in DMSO) was substituted for the compound; in addition, positive control wells received 1.2 μL of 50 mM ethylenediaminetetraaceticacid (EDTA). The plates were incubated at room temperature for 45 min. At the end of the incubation, the reaction was quenched with 1.2 μL of 50 mM EDTA (EDTA was not added to the positive control wells at this point; see above). Following a 5-min incubation, each well received 10 μL of a 1:1:3 mixture of anti-phosphotyrosine antibody, 10×, PTK green tracer, 10× (vortexed), FP dilution buffer, respectively (all from PanVera, cat. # P2837). The plate was covered, incubated for 30 min at room temperature and the fluorescence polarization was read on the Analyst. […]

Macrophage colony-stimulating factor 1 receptor, sequence (P07333 whole entry): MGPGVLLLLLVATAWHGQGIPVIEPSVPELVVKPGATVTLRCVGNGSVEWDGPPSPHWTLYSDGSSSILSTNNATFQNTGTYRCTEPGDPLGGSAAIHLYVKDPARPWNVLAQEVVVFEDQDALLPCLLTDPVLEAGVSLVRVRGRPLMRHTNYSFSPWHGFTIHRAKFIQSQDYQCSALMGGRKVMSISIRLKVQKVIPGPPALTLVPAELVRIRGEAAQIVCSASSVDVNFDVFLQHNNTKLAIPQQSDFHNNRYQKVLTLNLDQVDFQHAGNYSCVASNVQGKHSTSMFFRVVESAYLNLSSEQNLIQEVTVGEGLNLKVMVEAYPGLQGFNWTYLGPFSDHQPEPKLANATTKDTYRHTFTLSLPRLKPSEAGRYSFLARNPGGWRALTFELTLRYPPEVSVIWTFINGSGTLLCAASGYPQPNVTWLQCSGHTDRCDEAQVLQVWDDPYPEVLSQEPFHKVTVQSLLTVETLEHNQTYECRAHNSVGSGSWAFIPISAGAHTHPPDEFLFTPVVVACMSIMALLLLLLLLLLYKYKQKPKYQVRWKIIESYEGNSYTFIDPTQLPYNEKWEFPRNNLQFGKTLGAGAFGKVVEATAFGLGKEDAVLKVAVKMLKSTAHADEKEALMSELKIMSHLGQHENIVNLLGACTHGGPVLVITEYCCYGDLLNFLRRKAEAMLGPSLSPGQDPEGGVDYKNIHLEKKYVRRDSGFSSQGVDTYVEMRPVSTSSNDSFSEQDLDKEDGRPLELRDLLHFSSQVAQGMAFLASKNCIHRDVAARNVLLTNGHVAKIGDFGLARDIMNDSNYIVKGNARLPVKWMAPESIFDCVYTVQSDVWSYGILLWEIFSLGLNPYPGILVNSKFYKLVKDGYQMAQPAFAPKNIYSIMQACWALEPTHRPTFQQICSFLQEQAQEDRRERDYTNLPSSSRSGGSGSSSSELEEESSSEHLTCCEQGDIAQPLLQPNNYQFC

Molecule CC1(C)CC=C(c2cc([C@]3(O)CC[C@@H](N4CCOCC4)CC3)ccc2NC(=O)c2nc(C#N)c[nH]2)CC1 [US9403804, 44] has an IC50 of 0.72 nM.

In the case of CC1(C)CC=C(c2cc([C@]3(O)CC[C@H](N4CCOCC4)CC3)ccc2NC(=O)c2nc(C#N)c[nH]2)CC1 [US9403804, 45], the IC50 is reported as 3.4 nM.
